Columns and labels:
3T3-L1 preadipocytes = assay: Inhibition of differentiation of 3T3-L1 preadipocyte to adipocyte (oil red O staining); type: cell-based, mouse; settings: 3T3-L1 cell line, concentration of 2 μM
Method: To investigate inhibition effect on adipocyte differentiation in 3T3-L1 preadipocytes, mouse embryo fibroblasts were cultured in DMEM supplemented with 10% FBS to confluency. Two days later (Day 0), the cells were stimulated for the differentiation in DMEM, the differentiation medium supplemented with 10% FBS, 0.5 mM 3-isobutyl-1-methyl-xanthine, […], and […] (Day 2). For the next 6 days, the cells were cultured in DMEM supplemented with 10% FBS and 2 mM insulin (Day 8), followed by further culture in DMEM supplemented with 10% FBS for […] (Day 8). Every medium was added with 100 IU/ml of penicillin and […] of streptomycin. The cells were cultured in the presence of 95% air and 5% CO2. During the whole culture period (Day 0˜Day 8), the treatment of the rotenoisin A and B (2, 0.2, 0.02 uM) of the present invention was performed by the conventional method known to those in the art (Liu, Q.; Shin, E.; Ahn, M. J.; Hwang, B. Y.; Lee, M. K. Nat. Prod. Sci. 2011, 17, 212.) with slight modification. […]
Particularly, intracellular fat lump was stained with oil red O. 8 days after the induction of cell differentiation, the cells were washed with […] twice, followed by fixing in 10% formalin for 1 hour at room temperature. […] For quantitative analysis, oil red O was dissolved with isopropyl alcohol, followed by measuring OD500 using an ELISA reader.

pig pancreatic lipase = pig pancreatic lipase (Sus scrofa (Pig), UniProt P00591); assay: Pancreatic lipase inhibiting activity (p-nitrophenylbutyrate hydrolysis); type: biochemical
Method: To investigate obesity treating effect of the novel rotenoisin A and B, each represented by formula 2 and formula 3 isolated and purified in <Example 2>, pancreatic lipase inhibiting activity of the same was measured.
Particularly, pancreatic lipase inhibiting activity was measured by the conventional method known to those in the art (Kim, J. H.; Kim, H. J.; Park, H. W.; Youn, S. H.; Choi, D. Y.; Shin, C. S. FEMS Microbiol. Lett. 2007, 276, 93.). To prepare the enzyme buffer, […] (10 units) of pig pancreatic lipase solution (Sigma, St. Louis, Mo.) and 1 mM EDTA (pH 6.8) were mixed with 10 mM MOPS (morpholinepropanesulphonic acid), which was added to […] of tris buffer (100 mM Tris-HCl and 5 mM CaCl2, pH 7.0). Then, […] of the rotenoisin A or B of the present invention was mixed with the prepared enzyme buffer at the experimental concentration. […] 20 mL of substrate solution containing 20 mM p-nitrophenylbutyrate dissolved in dimethyl formaide was added to the enzyme buffer, followed by culture for 15 minutes at 37° C. that was the temperature adequate for enzyme reaction. Pancreatic lipase activity was measured by measuring the hydrolysis of p-nitrophenylbutyrate into p-nitrophenol using an ELISA reader (Infinite F200; Tecan Austria GmBH, Grodig, Austria).

Chain of pig pancreatic lipase (P00591 whole entry): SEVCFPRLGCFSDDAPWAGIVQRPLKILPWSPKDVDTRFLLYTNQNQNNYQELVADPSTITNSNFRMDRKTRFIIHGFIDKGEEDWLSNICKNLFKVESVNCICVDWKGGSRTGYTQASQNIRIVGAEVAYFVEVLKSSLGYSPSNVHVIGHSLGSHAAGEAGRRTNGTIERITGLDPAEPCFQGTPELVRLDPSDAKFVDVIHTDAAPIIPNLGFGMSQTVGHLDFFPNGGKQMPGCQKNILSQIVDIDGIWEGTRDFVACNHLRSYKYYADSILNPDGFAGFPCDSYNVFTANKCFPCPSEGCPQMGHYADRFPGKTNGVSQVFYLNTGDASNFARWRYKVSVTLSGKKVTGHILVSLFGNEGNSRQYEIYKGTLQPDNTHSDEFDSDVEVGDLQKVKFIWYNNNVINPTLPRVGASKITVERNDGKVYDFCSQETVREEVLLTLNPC

SMILES	adipocyte differentiation inhibiting activity (3T3-L1 preadipocytes; Day 8)	inhibition at 2 µM (3T3-L1 preadipocytes; Mus musculus, 192 h, Day 8, read-out: adipocyte differentiation inhibiting activity)	IC50 (pig pancreatic lipase)
C=C(C)[C@H]1Cc2c(ccc3c2O[C@@H]2COc4cc(OC)c(OC)cc4[C@@H]2C32CO2)O1 (some centres unmarked) [rotenoisin A]	approximately 70%	~70%	6.3 ± 0.3 µM
C=C(C)[C@H]1Cc2c(ccc3c2O[C@@H]2COc4cc(OC)c(OC)cc4[C@@H]2[C@]32CC3O[C@]3(O)[C@@H](O)O2)O1 (some centres unmarked) [rotenoisin B]			28.4 ± 1.2 µM
C=C(C)[C@H]1Cc2c(ccc3c2O[C@@H]2COc4cc(OC)c(OC)cc4[C@@H]2C3=O)O1 [rotenone]			> 500 µM

From patent US9328123B2, “Rotenone derivatives and a use thereof” (priority 2012, dated 2016)
